Measured values published in ChEMBL document CHEMBL1141883 (J Med Chem, 2005).

Experiments:
[1] = target: Glycogen synthase kinase-3 (Homo sapiens, UniProt P49840+P49841); assay: Inhibition of glycogen synthase kinase 3; format: protein assay
[2] = target: Cyclin-dependent kinase 1/cyclin B (Homo sapiens, UniProt P06493); assay: Inhibition of cyclin-dependent kinase 1/cyclinB; format: protein-complex assay
[3] = target: Cyclin-dependent kinase 6 (Homo sapiens, UniProt Q00534); assay: Inhibition of human cyclin-dependent kinase 6 complex with a virus-encoded cyclin from herpesvirus saimiri (Vcyclin)
[4] = target: Cyclin-dependent kinase 5/CDK5 activator 1 (Homo sapiens, UniProt Q00535); assay: Inhibition of Cyclin-dependent kinase 5-p25nck5a; format: protein-complex assay
Chain of Cyclin-dependent kinase 5/CDK5 activator 1 (Q00535 whole entry): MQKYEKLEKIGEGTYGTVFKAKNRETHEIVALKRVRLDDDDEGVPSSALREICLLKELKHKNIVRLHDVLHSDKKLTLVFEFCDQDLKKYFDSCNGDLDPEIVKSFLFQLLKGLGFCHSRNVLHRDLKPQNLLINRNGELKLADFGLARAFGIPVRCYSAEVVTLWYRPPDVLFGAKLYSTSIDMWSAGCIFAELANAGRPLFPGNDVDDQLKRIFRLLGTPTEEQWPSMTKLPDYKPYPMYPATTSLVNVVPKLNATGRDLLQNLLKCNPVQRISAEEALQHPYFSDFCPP
Chain of Cyclin-dependent kinase 5/CDK5 activator 1 (Q15078 whole entry, further chain): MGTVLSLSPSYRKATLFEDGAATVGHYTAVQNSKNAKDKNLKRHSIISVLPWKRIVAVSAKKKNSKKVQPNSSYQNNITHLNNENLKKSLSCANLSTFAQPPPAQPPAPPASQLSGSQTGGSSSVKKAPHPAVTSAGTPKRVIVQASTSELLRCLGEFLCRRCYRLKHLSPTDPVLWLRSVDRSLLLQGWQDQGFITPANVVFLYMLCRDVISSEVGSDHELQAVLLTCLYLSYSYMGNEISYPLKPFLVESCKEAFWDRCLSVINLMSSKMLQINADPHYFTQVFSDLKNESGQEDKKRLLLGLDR

Chain of Cyclin-dependent kinase 6 (Q00534 whole entry): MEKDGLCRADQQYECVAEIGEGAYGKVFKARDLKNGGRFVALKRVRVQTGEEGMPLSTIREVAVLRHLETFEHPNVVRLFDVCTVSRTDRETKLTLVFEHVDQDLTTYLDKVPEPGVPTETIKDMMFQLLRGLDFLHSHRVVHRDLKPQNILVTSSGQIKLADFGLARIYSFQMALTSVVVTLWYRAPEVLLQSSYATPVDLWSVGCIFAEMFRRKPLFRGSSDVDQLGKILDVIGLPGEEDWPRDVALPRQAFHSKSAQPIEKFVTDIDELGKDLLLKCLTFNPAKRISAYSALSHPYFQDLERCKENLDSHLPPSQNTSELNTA

Row | Structure (SMILES) | IC50 [1] [µM] | IC50 [2] [µM] | IC50 [3] [µM] | IC50 [4] [µM]
1 | O=c1cc(-c2ccc(O)cc2)oc2cc(O)cc(O)c12 [APIGENIN] | 1.4 | 4 | 1.7 | 1.6
2 | O=c1cc(-c2ccc(O)c(O)c2)oc2cc(O)cc(O)c12 [LUTEOLIN] | 0.8 |  | > 300 | 3.8
3 | O=c1cc(-c2ccccc2)oc2cc(O)cc(O)c12 [CHRYSIN] | 7.2 | 7.1 | 6 | 3.1
4 | O=c1c(O)c(-c2ccc(O)c(O)c2)oc2cc(O)ccc12 [FISETIN] | 0.42 | 0.79 |  | 0.57
5 | O=c1c(O)c(-c2ccc(O)c(O)c2)oc2cc(O)cc(O)c12 [QUERCETIN] | 2.1 | 75 | 25 | 
6 | O=c1c(O)c(-c2ccc(O)cc2)oc2cc(O)cc(O)c12 [KAEMPFEROL] | 3.5 | 41 | 22 | 51
